Measurements from article PMC5584254, “Identification of novel small molecule Beclin 1 mimetics activating autophagy” (Oncotarget, 2017).
Structures can show the parent of a compound that is named as a salt. Where two headings read alike, the source gives them in different places.

Experiments:
Bcl-xL-Beclin 1 complex [1] = target: T1, Bcl-xL-Beclin 1 complex (Homo sapiens, UniProt Q07817); assay: FP-based high-throughput screening, primary screen; format: binding; conditions: first screen; 40 μM compound, 2.5 μM Bcl-xL, 400 nM 20-mer
T1 construct: made in house
Description: Next, we optimized the FP competitive binding assay in a 384-well microplate format and carried out a small-scale HTS using a small library, which contains 6580 compounds from Prestwick, Microsource and our in-house CMLD library. Then, the FP assay was optimized and applied in screening the larger Chembridge library consisting of 43736 compounds. HTS cascades are shown in Supplementary Figure 1A–1B. […] All chemical structures can be found on the PubChem website (http://pubchem.ncbi.nlm.nih.gov/).
(§1) Then the plates were read by Envision (Perkin Elmer, Waltham, MA). […] The hits were selected from library stocks and reconfirmed in a concentration response FP assay (6 doses ranging from 5 μM to 160 μM or 8 doses ranging from 0.5 μM to 60 μM).

Bcl-xL-Beclin 1 complex [2] = target: T1, Bcl-xL-Beclin 1 complex; assay: Concentration response FP reconfirmation of HTS hits; format: binding; conditions: for inhibition at 5 µM: read-out: Dose-response (% Inhibition) 5 μM; for inhibition at 10 µM: read-out: Dose-response (% Inhibition) 10 μM; for inhibition at 20 µM: read-out: Dose-response (% Inhibition) 20 μM; for inhibition at 40 µM: read-out: Dose-response (% Inhibition) 40 μM; for inhibition at 80 µM: read-out: Dose-response (% Inhibition) 80 μM; for inhibition at 160 µM: read-out: Dose-response (% Inhibition) 160 μM
Experimental: as §1

T1 sequence (Q07817 whole entry, one chain of several): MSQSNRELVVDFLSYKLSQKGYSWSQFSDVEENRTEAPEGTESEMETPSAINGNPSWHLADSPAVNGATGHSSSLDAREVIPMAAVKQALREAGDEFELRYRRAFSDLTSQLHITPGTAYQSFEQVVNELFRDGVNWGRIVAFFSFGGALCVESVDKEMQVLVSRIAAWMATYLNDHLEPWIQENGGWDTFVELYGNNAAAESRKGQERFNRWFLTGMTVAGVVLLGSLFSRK

SMILES | Primary Screen mP (Bcl-xL-Beclin 1 complex [1]) | inhibition at 40 µM (Bcl-xL-Beclin 1 complex [1]) | inhibition at 5 µM (Bcl-xL-Beclin 1 complex [2]; 5 μM, hits of first screen) | inhibition at 10 µM (Bcl-xL-Beclin 1 complex [2]; 10 μM, hits of first screen) | inhibition at 20 µM (Bcl-xL-Beclin 1 complex [2]; 20 μM, hits of first screen) | inhibition at 40 µM (Bcl-xL-Beclin 1 complex [2]; 40 μM, hits of first screen) | inhibition at 80 µM (Bcl-xL-Beclin 1 complex [2]; 80 μM, hits of first screen) | inhibition at 160 µM (Bcl-xL-Beclin 1 complex [2]; 160 μM, hits of first screen) | further results
C[n+]1cc2c3c(ccc2c2ccc4cc5c(cc4c21)OCO5)OCO3 [Compound A05, SANGUINARINE SULFATE] | 130.6 mP | 6.61% | – | – | – | – | – | – | inhibition at 5 µM (Bcl-xL-Beclin 1 complex [2]): -1.4%; inhibition at 10 µM (Bcl-xL-Beclin 1 complex [2]): -0.2%; inhibition at 20 µM (Bcl-xL-Beclin 1 complex [2]): 2%; inhibition at 40 µM (Bcl-xL-Beclin 1 complex [2]): 8.4%; inhibition at 80 µM (Bcl-xL-Beclin 1 complex [2]): 20.6%; inhibition at 160 µM (Bcl-xL-Beclin 1 complex [2]): 31.1%
CCCCC(CC)CCC(CC(C)C)OS(=O)(=O)O (stereo not shown) [Compound A06, SODIUM TETRADECYL SULFATE] | 121.5 mP | 9.56% | -7.3% | -3.8% | -1% | 2.6% | 15.4% | 24.4% | –
COc1cccc2c1C(=O)c1c(O)c3c(c(O)c1C2=O)C[C@@](O)(C(=O)CO)C[C@@H]3O[C@H]1C[C@H](N)[C@H](O)[C@H](C)O1 [Compound A25, DOXORUBICIN HYDROCHLORIDE] | 75.9 mP | 44% | 18.9% | 29.1% | 36.5% | 41.7% | 48.6% | 53.2% | –
O=C(O)c1cc(O)c2c(c1)[C@H]([C@H]1c3cc(C(=O)O)cc(O)c3C(=O)c3c(O[C@@H]4O[C@H](CO)[C@@H](O)[C@H](O)[C@H]4O)cccc31)c1cccc(O[C@@H]3O[C@H](CO)[C@@H](O)[C@H](O)[C@H]3O)c1C2=O [Compound A34, SENNOSIDE A] | 119.9 mP | 12.8% | 0.5% | 4.7% | 6.3% | 12% | 22.5% | 20.9% | –
O=C1C(Cl)=C(Cl)C(=O)C(Cl)=C1Cl [Compound A27, CHLORANIL] | 140.9 mP | 27.8% | – | – | – | – | – | – | inhibition at 5 µM (Bcl-xL-Beclin 1 complex [2]): -3%; inhibition at 10 µM (Bcl-xL-Beclin 1 complex [2]): 19.4%; inhibition at 20 µM (Bcl-xL-Beclin 1 complex [2]): 22.6%; inhibition at 40 µM (Bcl-xL-Beclin 1 complex [2]): 23.4%; inhibition at 80 µM (Bcl-xL-Beclin 1 complex [2]): 28.5%; inhibition at 160 µM (Bcl-xL-Beclin 1 complex [2]): 35.9%
C[n+]1c2cc(N)ccc2cc2ccc(N)cc21.[Cl-] [Compound A26, ACRIFLAVINIUM HYDROCHLORIDE] | -3.2 mP | – | – | – | – | – | – | – | Primary Screen % Inhibition (Bcl-xL-Beclin 1 complex [1]): 102.40%; Dose-response (% Inhibition) 5 μM (Bcl-xL-Beclin 1 complex [2]; 5 μM, hits of first screen): 102.5%; Dose-response (% Inhibition) 10 μM (Bcl-xL-Beclin 1 complex [2]; 10 μM, hits of first screen): 102.5%; Dose-response (% Inhibition) 20 μM (Bcl-xL-Beclin 1 complex [2]; 20 μM, hits of first screen): 102.5%; Dose-response (% Inhibition) 40 μM (Bcl-xL-Beclin 1 complex [2]; 40 μM, hits of first screen): 102.5%; Dose-response (% Inhibition) 80 μM (Bcl-xL-Beclin 1 complex [2]; 80 μM, hits of first screen): 102.0%; Dose-response (% Inhibition) 160 μM (Bcl-xL-Beclin 1 complex [2]; 160 μM, hits of first screen): 102.4%
CC[C@@]1(O)C(=O)OCc2c1cc1n(c2=O)Cc2cc3c(CN(C)C)c(O)ccc3nc2-1 [Compound A23, TOPOTECAN HYDROCHLORIDE] | 43.8 mP | 68.7% | 39.8% | 54.8% | 64.7% | 70.9% | 102% | 103% | –
O=C(O)C1=CC(=C(c2ccc(O)c(C(=O)O)c2)c2ccc(O)c(C(=O)O)c2)C=CC1=O [Compound A14, AURIN TRICARBOXYLIC ACID] | 129.7 mP | 6.76% | 0.7% | 2% | 3.8% | 4.8% | 8.1% | 8.6% | –
CN(C)c1ccc(C(=C2C=CC(=[N+](C)C)C=C2)c2ccc(N(C)C)cc2)cc1 [Compound A08, GENTIAN VIOLET] | 123.0 mP | 11.7% | 1.9% | 3.7% | 5.8% | 6.6% | 21.2% | 22.7% | –
OCCN(CCO)c1nc(N2CCCCC2)c2nc(N(CCO)CCO)nc(N3CCCCC3)c2n1 [Compound A22, DIPYRIDAMOLE] | 72.7 mP | 47.8% | 10.1% | 21% | 35.1% | 46.7% | 62.9% | 72.4% | –
COC(=O)Nc1nc2ccc(Sc3ccccc3)cc2[nH]1 [Compound A10, FENBENDAZOLE] | 128.0 mP | 8.47% | -3.4% | 2.3% | 0.2% | -0.1% | -0.4% | 8.8% | –
